Measurements from patent publication US8163699B2, “Method for the treatment of valvular disease” (Montreal Heart Institute, priority 2006, dated 2012).
Values joined by “and” are separate entries in the source; they are usually repeats but may differ in a detail not shown here. Equal entries are not always repeated.

How the values were obtained:
Format in all cases: in vivo, New-Zealand White rabbits
aortic valve lesions [1] = experiment: Histochemistry of aortic valves (von Kossa, filipin, Sirius red, immunohistochemistry) in rabbit model of aortic valve stenosis
Text: An animal model adapted from that described by Drolet et al. (12) was used. Fifteen male New-Zealand White rabbits (2.7-3.0 kg, aged 12-13 weeks) were fed with a 0.5% cholesterol-enriched diet (Harlan, Indianapolis, Ind.) plus vitamin D2 (50000 UI per day; Sigma, Markham, Canada) in the drinking water until significant AVS, as defined by a decrease ≧10% of aortic valve area (AVA) or of the transvalvular velocities ratio (V1/V2), could be detected by echocardiography (12.9±2.4 weeks). The animals then returned to a standard diet (without vitamin D2) to mimic cholesterol lowering and were randomly assigned to receive either saline (control group, n=8) or the ApoA-1 mimetic peptide (treated group, n=7). Rabbits were given injections through the marginal ear vein of saline or of the ApoA-1 mimetic peptide (25 mg/kg) complexed with phospholipids (Compound A), 3 times per week for 2 weeks. Echocardiograms were performed serially (see Echocardiography Methods) every 3 to 4 days throughout the randomized treatment period. Two days after their last infusion, the animals underwent a final echocardiogram and were sacrificed, and the aortic valves were harvested for histological analyses. Blood samples were obtained through the ear artery at baseline, prior to treatment and before sacrifice. Total cholesterol, HDL cholesterol, triglycerides and calcium levels were measured with an automated filter photometer system (Dimension RxL Max, Dade Behring, Ill.). Hematoxylin-phloxin-safran, von Kossa and Sirius red (F3B, BDH, UK) stained sections were prepared for routine examination, tissue calcification and collagen studies respectively. Collagen fibers types I and III were quantified as previously described (13), on Sirius red picric acid stained sections under polarized light. For immunohistochemistry evaluation, all sections were preincubated with either mouse IgG2a monoclonal antibody against rabbit macrophage (RAM11, Dako, Canada) (1:100 dilution) or rabbit smooth muscle cell α-actin (Clone 1A4, Dako, Canada) (1:200 dilution). Species-appropriate biotinylated secondary antibodies were applied, followed by streptavidin horseradish peroxidase complex, visualized with azoethylcarbazol (AEC) and counterstained by Mayer's hematoxylin. Smooth muscle cells, macrophages and calcification areas were quantified in the ROA on digital images acquired at 40× magnification. Images from each section were digitally captured with the same illumination settings, and automatic computer-based analysis was performed with the same color threshold for all specimens. Data were expressed as percent labelled area in ROA. For assessment of tissue free cholesterol, 5 μm cryosections fixed in 4% paraformaldehyde in PBS (pH 7.4) were stained with filipin (13). Sections were incubated for 1 hour at room temperature in filipin complex (Sigma, Canada) dissolved in DMSO and diluted in PBS, mounted in Vectashield (Vector Laboratories, USA) and viewed by fluorescence microscopy using a Zeiss Axiovert 200M microscope with the DAPI filter set. Images were acquired with an AxioCam MRm digital camera mounted with a 0.63× C-mount adapter. Filipin data were expressed as arbitrary units of fluorescence intensity. Data are presented as mean±standard deviation. For the “pre-treatment” period, repeated measures analysis of variance (ANOVA) models were used to study the echocardiographic and serum measurements across time and between groups (treated vs. control groups). Models with time, group and group×time interaction as independent variables were used and comparisons between groups at a given time point were undertaken only in the presence of a significant group×time interaction. Otherwise, global conclusions were drawn based on the main group effects of the model. […]

aortic valve lesions [2] = experiment: Histomorphometry of aortic valves in rabbit model of aortic valve stenosis; settings: treated group; post mortem after 2 weeks of treatment
Text: An animal model adapted from that described by Drolet et al. (12) was used. Fifteen male New-Zealand White rabbits (2.7-3.0 kg, aged 12-13 weeks) were fed with a 0.5% cholesterol-enriched diet (Harlan, Indianapolis, Ind.) plus vitamin D2 (50000 UI per day; Sigma, Markham, Canada) in the drinking water until significant AVS, as defined by a decrease ≧10% of aortic valve area (AVA) or of the transvalvular velocities ratio (V1/V2), could be detected by echocardiography (12.9±2.4 weeks). The animals then returned to a standard diet (without vitamin D2) to mimic cholesterol lowering and were randomly assigned to receive either saline (control group, n=8) or the ApoA-1 mimetic peptide (treated group, n=7). Rabbits were given injections through the marginal ear vein of saline or of the ApoA-1 mimetic peptide (25 mg/kg) complexed with phospholipids (Compound A), 3 times per week for 2 weeks. Echocardiograms were performed serially (see Echocardiography Methods) every 3 to 4 days throughout the randomized treatment period. Two days after their last infusion, the animals underwent a final echocardiogram and were sacrificed, and the aortic valves were harvested for histological analyses. Blood samples were obtained through the ear artery at baseline, prior to treatment and before sacrifice. Total cholesterol, HDL cholesterol, triglycerides and calcium levels were measured with an automated filter photometer system (Dimension RxL Max, Dade Behring, Ill.). The ascending aorta and aortic valve were opened longitudinally and the 3 valvular cusps were separated. […] Stained or immunohistochemically labeled tissue sections obtained from the central third of each cusp were analyzed with a computer-based digitizing image system (Image Pro Plus, version 5.1) using a light microscope (BX41, Olympus) connected to a digital video camera (Qcolor3, Olympus). […] Lesion area (LA) and leaflet lesion length (LLL) were measured. […] Relationships between histomorphometry and echocardiographic variables were evaluated using Pearson correlation coefficient. […]

[3] = tested on: aortic valve stenosis (AVS); experiment: Echocardiography (aortic valve area, aortic valve thickness) in rabbit model of aortic valve stenosis; settings: for Aortic valve area (AVA): 25 mg/kg i.v. 3 times per week; for Aortic valve thickness: treated rabbits
Text: A complex animal model of aortic valve stenosis has been developed in rabbits.
An animal model adapted from that described by Drolet et al. (12) was used. Fifteen male New-Zealand White rabbits (2.7-3.0 kg, aged 12-13 weeks) were fed with a 0.5% cholesterol-enriched diet (Harlan, Indianapolis, Ind.) plus vitamin D2 (50000 UI per day; Sigma, Markham, Canada) in the drinking water until significant AVS, as defined by a decrease ≧10% of aortic valve area (AVA) or of the transvalvular velocities ratio (V1/V2), could be detected by echocardiography (12.9±2.4 weeks).
(§1) The animals then returned to a standard diet (without vitamin D2) to mimic cholesterol lowering and were randomly assigned to receive either saline (control group, n=8) or the ApoA-1 mimetic peptide (treated group, n=7). Rabbits were given injections through the marginal ear vein of saline or of the ApoA-1 mimetic peptide (25 mg/kg) complexed with phospholipids (Compound A), 3 times per week for 2 weeks. Echocardiograms were performed serially (see Echocardiography Methods) every 3 to 4 days throughout the randomized treatment period. Two days after their last infusion, the animals underwent a final echocardiogram and were sacrificed, and the aortic valves were harvested for histological analyses. Blood samples were obtained through the ear artery at baseline, prior to treatment and before sacrifice. Total cholesterol, HDL cholesterol, triglycerides and calcium levels were measured with an automated filter photometer system (Dimension RxL Max, Dade Behring, Ill.).
Transthoracic echocardiographic studies were performed at baseline, on a weekly basis starting at 8 weeks of hypercholesterolemic diet until significant AVS developed, and then after 4, 7, 10 and 14 days of ApoA-1 mimetic peptide or saline control treatments. Studies were carried out with an S12 probe using a standard echocardiographic system (Sonos 5500, Philips Medical Imaging, MA). Intra-muscular injections of ketamine (45 mg/kg) and midazolam (0.75 mg/kg) were used for sedation.
Parasternal long and short-axis views of the aortic valve were recorded to assess leaflet morphology. Left ventricular outflow tract (LVOT) diameter was measured in a zoomed parasternal long-axis view, and LVOT cross-sectional area (CSALVOT) was calculated according to: CSALVOT=π(DLVOT/2)^2. LVOT velocity (V1) and velocity time integral (VTILVOT) were obtained with pulsed-wave Doppler sampled proximal to the aortic valve in the apical 5-chamber view. Continuous wave (CW) Doppler interrogation across the aortic valve was used to obtain transvalvular maximal velocity (V2) and VTI (VTIAO) in the same view. V1/V2 ratio was calculated in the pre-treatment period to determine AVS development. Aortic valve area (AVA) was obtained at each time point by the continuity equation: AVA=CSALVOT×(VTILVOT/[…]). Aortic valve thickness in its middle portion was measured at end-diastole in a zoomed parasternal long-axis view at baseline, before randomized therapy, and at the final echocardiographic exam.
The average of three consecutive cardiac cycles was used for each measurement. Special care was taken to obtain similar imaging planes on serial examinations by reviewing previous recordings before follow-up study. All echocardiographic imaging and measurements were performed throughout the protocol by the same experienced investigator blinded to randomized treatment assignment.
Data are presented as mean±standard deviation. For the “pre-treatment” period, repeated measures analysis of variance (ANOVA) models were used to study the echocardiographic and serum measurements across time and between groups (treated vs. control groups). Models with time, group and group×time interaction as independent variables were used and comparisons between groups at a given time point were undertaken only in the presence of a significant group×time interaction. Otherwise, global conclusions were drawn based on the main group effects of the model. […]

[4] = Serum lipids and calcemia in rabbit model of aortic valve stenosis; settings: for HDL-cholesterol / total cholesterol levels: treated group
Description: as §1
Data are presented as mean±standard deviation. For the “pre-treatment” period, repeated measures analysis of variance (ANOVA) models were used to study the echocardiographic and serum measurements across time and between groups (treated vs. control groups). Models with time, group and group×time interaction as independent variables were used and comparisons between groups at a given time point were undertaken only in the presence of a significant group×time interaction. Otherwise, global conclusions were drawn based on the main group effects of the model. For the randomized treatment period, repeated measures analysis of covariance (ANCOVA) models were used to study the echocardiographic and serum measurements across time and between groups (treated vs. control groups), adjusted for the baseline value of the response variable. The group×time interaction was also included in the ANCOVA models and comparisons between groups at a given time point were undertaken only in the presence of a significant group×time interaction. Otherwise, global conclusions were drawn based on the main group effects of the model. Histological variables were compared between treated and control groups using Student t-test. Relationships between histomorphometry and echocardiographic variables were evaluated using Pearson correlation coefficient. All analyses were performed with SAS release 8.2 (SAS Institute Inc., Cary, N.C.) and conducted at the 0.05 significance level.

[5] = treated rabbits, Sirius red, polarized light
[6] = treated group, after 7 days of treatment
[7] = treated group, after 10 days of treatment
[8] = treated group, after 14 days of treatment
[9] = at the time of randomization (pre-treatment value)

Substance: H-Pro-Val-Leu-Asp-Leu-Phe-Arg-Glu-Leu-Leu-Asn-Glu-Leu-Leu-Glu-Ala-Leu-Lys-Gln-Lys-Leu-Lys-OH (H-PVLDLFRELLNELLEALKQKLK-OH; not fully specified) [ApoA-1 mimetic peptide, ApoA-1 mimetic peptide complexed with phospholipids, mimicking nascent HDL]
- decrease in free cholesterol compared to controls (aortic valve lesions [1]; treated animals vs. controls, first 10 μm at luminal edge of lesions, not statistically significant, P=0.231): 41%
- free cholesterol (filipin fluorescent signal) (aortic valve lesions [1]; treated animals, within the first 10 μm at the luminal edge of lesions): 221±54 arbitrary units of fluorescence intensity
- percentage of rabbits with calcium deposits in the lesion core in the sinuses of Valsalva (aortic valve lesions [1]; treated group): 57%
- decrease of calcification area compared to controls (aortic valve lesions [1]; treated group vs. controls, von Kossa staining, strong trend, P=0.063): 77%
- percentage of the sinus of Valsalva area occupied by calcifications (aortic valve lesions [1]; treated group, von Kossa staining): 1.6±2.0%
- percentage of collagen type I fibers in the ROA (aortic valve lesions [1]; [5]): 5.5±5.6 %/ROA
- percentage of collagen type III fibers in the ROA (aortic valve lesions [1]; [5]): 19.1±11.3 %/ROA
- macrophage areas (aortic valve lesions [1]; treated vs. control group, RAM11 immunohistochemistry): no significant differences between groups
- α-actin positive areas (aortic valve lesions [1]; treated vs. control group, smooth muscle cell α-actin immunohistochemistry): no significant differences between groups
- % LLL (percentage of total leaflet length occupied by lesion) (aortic valve lesions [2]): 55.7±24.3%
- Lesion extent at the base of valve leaflets and sinuses of Valsalva (aortic valve lesions [2]): 52.8±12.5%
- percentage of lesion area (LA) per region of analysis (ROA) (aortic valve lesions [2]): 52.8±12.5 %/ROA
- Aortic valve area (AVA) [3, 6]: 21.9±3.6 mm^2
- Aortic valve area (AVA) [3, 7]: 23.0±4.1 mm^2
- Aortic valve area (AVA) [3, 8]: 23.8±3.1 mm^2
- relative increase of AVA [3, 6]: 14.2±3.5% and 14.2%
- relative increase of AVA [3, 7]: 19.8±3.5% and 19.8%
- relative increase of AVA [3, 8]: 24.6±2.0% and 24% and 24.6%
- decrease of aortic valve thickness ([3]; treated group, within 14 days of treatment): 21%
- Aortic valve thickness ([3]; at end of treatment (14 days)): 0.075±0.033 cm
- Aortic valve thickness ([3]; before randomization (pre-treatment value)): 0.094±0.034 cm
- HDL-cholesterol ([4]; at end of treatment): 0.45 ± 0.17 mmol/L
- total cholesterol levels ([4]; at end of treatment): 17.57 ± 10.32 mmol/L
- HDL-cholesterol [4, 9]: 0.50 ± 0.15 mmol/L
- total cholesterol levels [4, 9]: 20.13 ± 5.18 mmol/L
- triglyceride levels ([4]; treated vs. control group during treatment period, P=0.544): similar
